Measured values: ChEMBL document CHEMBL3774308, “KATching-Up on Small Molecule Modulators of Lysine Acetyltransferases” (J Med Chem, 2016)

Legend:
[1] = target: CREB-binding protein (Homo sapiens, UniProt Q92793); assay: Inhibition of human CREBBP expressed in competent escherichia coli BL21(DE3)-R3-pRARE2 cells by isothermal titration calorimetry
[2] = target: Histone acetyltransferase p300 (Homo sapiens, UniProt Q09472); assay: Inhibition of human p300 expressed in competent escherichia coli BL21(DE3)-R3-pRARE2 cells by isothermal titration calorimetry
Histone acetyltransferase p300, sequence (Q09472 whole entry): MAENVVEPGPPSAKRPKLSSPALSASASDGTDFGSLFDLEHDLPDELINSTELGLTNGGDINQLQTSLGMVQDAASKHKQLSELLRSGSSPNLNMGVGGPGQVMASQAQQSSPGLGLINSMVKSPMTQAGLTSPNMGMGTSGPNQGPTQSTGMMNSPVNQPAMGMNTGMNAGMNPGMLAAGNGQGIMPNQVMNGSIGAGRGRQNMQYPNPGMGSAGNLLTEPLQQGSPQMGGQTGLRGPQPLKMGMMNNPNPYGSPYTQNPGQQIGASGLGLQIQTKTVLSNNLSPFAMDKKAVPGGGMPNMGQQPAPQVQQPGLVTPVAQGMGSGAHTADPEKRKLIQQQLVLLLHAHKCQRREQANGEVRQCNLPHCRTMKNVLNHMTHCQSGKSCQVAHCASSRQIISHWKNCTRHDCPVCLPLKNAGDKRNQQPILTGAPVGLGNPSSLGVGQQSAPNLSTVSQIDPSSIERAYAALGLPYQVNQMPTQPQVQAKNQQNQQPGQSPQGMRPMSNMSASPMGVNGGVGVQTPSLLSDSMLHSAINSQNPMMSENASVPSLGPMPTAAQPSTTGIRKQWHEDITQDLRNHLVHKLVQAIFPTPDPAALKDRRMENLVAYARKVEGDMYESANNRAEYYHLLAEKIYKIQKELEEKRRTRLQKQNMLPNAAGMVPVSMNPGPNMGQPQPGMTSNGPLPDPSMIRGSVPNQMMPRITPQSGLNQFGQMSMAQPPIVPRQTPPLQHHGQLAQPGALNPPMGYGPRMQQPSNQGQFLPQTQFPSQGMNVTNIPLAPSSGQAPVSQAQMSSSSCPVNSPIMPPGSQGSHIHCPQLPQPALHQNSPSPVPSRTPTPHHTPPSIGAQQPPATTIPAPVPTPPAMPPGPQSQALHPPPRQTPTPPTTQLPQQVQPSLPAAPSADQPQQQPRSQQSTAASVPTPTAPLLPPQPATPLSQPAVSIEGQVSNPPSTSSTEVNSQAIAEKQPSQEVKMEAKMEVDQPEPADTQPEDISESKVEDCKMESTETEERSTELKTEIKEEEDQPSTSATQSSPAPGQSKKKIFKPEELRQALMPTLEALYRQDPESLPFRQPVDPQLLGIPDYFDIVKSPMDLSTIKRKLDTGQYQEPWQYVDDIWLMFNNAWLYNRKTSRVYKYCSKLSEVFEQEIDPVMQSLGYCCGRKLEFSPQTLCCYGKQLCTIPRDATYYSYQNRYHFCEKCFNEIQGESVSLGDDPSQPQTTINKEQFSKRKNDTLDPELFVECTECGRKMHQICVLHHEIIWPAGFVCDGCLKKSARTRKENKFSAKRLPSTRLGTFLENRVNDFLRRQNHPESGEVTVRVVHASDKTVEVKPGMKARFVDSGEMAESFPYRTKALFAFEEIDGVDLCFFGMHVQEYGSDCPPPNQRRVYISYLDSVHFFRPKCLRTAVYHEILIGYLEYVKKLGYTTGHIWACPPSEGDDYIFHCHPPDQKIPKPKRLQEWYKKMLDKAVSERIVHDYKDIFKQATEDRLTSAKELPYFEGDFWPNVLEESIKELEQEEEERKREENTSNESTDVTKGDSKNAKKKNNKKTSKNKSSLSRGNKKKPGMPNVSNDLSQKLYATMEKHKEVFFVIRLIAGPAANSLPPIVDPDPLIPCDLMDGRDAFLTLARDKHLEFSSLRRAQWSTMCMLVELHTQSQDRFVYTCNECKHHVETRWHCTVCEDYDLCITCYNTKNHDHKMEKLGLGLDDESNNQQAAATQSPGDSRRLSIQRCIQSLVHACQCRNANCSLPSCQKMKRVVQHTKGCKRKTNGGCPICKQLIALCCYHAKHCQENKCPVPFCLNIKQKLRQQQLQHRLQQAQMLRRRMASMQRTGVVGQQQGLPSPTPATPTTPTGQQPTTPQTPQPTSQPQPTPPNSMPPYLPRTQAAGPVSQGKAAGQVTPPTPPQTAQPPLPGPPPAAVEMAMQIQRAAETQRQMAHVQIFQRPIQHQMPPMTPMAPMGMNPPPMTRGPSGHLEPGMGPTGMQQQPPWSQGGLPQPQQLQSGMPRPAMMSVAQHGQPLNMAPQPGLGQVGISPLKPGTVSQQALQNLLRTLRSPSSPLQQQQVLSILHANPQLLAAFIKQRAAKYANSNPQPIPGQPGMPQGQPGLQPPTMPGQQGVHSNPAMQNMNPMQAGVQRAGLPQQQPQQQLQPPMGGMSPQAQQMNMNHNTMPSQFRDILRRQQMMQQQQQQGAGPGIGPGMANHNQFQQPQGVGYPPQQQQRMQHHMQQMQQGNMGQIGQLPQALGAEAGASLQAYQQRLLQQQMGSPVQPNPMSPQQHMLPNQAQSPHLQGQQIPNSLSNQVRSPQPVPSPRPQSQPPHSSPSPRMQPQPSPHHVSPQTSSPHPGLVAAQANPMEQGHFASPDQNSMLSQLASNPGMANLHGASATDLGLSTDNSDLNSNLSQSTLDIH

CREB-binding protein, sequence (Q92793 whole entry): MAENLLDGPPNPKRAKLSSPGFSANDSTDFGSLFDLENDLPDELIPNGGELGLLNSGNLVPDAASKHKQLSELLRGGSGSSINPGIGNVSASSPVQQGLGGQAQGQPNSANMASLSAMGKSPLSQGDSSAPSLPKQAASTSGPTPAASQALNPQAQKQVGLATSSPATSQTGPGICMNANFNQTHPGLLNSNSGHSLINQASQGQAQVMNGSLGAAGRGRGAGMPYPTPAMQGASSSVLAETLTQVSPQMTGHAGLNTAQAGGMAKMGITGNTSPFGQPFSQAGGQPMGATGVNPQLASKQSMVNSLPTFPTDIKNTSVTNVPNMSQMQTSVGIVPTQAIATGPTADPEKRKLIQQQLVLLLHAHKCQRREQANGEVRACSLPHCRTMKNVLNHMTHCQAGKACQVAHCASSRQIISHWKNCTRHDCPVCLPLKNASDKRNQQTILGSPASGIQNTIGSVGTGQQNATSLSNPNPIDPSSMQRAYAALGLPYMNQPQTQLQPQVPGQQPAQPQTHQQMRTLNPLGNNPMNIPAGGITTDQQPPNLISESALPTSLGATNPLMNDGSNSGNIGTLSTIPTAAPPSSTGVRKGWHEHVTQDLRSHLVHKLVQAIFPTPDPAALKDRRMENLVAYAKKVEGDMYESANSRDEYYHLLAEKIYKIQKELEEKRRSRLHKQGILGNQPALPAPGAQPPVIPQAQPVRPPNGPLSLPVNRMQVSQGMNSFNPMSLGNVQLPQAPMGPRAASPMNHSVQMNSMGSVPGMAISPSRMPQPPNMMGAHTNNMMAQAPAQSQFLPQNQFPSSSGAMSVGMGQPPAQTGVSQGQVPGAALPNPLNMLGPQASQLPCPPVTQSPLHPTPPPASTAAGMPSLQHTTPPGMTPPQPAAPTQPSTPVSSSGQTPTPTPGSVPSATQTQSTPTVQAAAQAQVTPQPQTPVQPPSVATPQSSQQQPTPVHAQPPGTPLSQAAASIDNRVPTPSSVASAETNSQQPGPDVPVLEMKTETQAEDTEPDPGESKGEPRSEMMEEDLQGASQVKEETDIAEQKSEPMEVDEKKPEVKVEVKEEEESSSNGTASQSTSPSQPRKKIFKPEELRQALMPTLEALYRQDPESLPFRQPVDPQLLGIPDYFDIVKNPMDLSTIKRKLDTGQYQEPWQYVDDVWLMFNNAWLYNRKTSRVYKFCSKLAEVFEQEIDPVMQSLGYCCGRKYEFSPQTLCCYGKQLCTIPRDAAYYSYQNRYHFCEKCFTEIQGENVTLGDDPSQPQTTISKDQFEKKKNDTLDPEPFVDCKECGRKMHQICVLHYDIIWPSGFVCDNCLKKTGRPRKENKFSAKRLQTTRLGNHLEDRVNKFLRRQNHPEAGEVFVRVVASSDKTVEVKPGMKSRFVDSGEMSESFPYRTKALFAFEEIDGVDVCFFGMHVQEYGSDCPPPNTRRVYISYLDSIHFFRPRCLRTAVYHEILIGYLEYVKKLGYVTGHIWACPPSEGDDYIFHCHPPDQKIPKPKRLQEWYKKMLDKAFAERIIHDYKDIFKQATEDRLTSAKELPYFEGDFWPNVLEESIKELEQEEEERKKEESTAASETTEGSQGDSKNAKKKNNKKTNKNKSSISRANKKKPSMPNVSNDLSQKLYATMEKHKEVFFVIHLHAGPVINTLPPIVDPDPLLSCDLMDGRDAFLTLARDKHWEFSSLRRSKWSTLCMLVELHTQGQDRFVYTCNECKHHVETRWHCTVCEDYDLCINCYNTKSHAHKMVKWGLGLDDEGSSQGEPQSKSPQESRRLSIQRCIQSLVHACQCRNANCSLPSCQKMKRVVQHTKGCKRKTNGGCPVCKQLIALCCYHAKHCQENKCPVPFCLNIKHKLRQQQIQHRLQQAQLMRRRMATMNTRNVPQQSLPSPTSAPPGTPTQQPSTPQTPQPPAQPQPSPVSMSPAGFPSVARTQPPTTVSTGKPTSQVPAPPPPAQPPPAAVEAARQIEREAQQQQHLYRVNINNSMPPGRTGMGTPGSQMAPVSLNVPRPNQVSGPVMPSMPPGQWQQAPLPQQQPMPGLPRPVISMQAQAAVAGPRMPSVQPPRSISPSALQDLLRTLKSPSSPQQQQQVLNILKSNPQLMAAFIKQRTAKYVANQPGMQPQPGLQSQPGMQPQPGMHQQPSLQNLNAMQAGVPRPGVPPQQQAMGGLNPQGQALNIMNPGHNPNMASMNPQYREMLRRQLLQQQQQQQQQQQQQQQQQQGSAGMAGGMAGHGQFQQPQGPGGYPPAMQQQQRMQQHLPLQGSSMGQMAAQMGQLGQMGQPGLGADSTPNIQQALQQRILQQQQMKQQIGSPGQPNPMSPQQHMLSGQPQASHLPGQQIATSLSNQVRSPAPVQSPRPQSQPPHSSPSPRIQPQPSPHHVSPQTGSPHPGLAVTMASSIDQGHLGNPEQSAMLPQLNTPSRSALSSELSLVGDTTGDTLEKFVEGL

CCC(=O)N1CCOc2c(cc(-c3ccc(OC)c(OC)c3)cc2OC[C@H]2CCCN(C)C2)C1
Kd [1]: 151 nM
Kd [2]: 167 nM
